Earlier results in patent US12358215B2, “Binders and methods of binder jetting including branched polymer binders and articles made therefrom” (VIRGINIA TECH INTELLECTUAL PROPERTIES, INC., priority 2019, dated 2025).

Q: For CC(=O)Nc1ccc(O)cc1 [Acetaminophen, acetaminophen], which “solubility in cold water” value is on record?
A: The value was “only slightly soluble”.
